Results reported in paper PMC4295395, “An open label pilot study to evaluate the efficacy of Spanish black radish on the induction of phase I and phase II enzymes in healthy male subjects” (BMC Complementary and Alternative Medicine, 2014).

Columns and labels:
[1] = Plasma acetaminophen and metabolite profile (HPLC) after 1000 mg acetaminophen, at week 0 and after 4 weeks of SBR supplementation; details: for Decrease of plasma AUC0-8h from week 0 to week 4: after 4 weeks SBR supplementation; for Decrease of plasma AUC0-8h from week 0 to week 4 / AUC(0-t) / Cmax / Tmax / Plasma AUC(0–8 hour) / Plasma Tmax / Plasma Cmax: 1000 mg acetaminophen; for Plasma Tmax, difference from week 0 to week 4: after 4 weeks SBR vs week 0, mean ± SD; for AUC(0-t) / Cmax / Tmax: male, human, plasma, oral, 1000 mg; for AUC(0-t): Plasma AUC(0–8 hour); for Cmax: Plasma Cmax; for Tmax: Plasma Tmax
Method: (§1) Participants returned to the clinic for their 8-hour in-clinic baseline visit (week 0) at which time their heart rate and blood pressure were measured and BMI calculated. […] Meals were provided after the pre-dose and 4-hour blood collection. After the 8-hour test period, participants received 3-day food records and paper diaries for recording their study product use, changes in concomitant therapies, and any side effects/changes in health conditions.
(§2) Participants returned to the clinic in a fasting state at 28 days post-baseline (week 4) for an 8-hour in-clinic test at which time heart rate and blood pressure were measured and BMI was calculated. […] Meals were provided after the pre-dose and the 4-hour blood collection. Subjects were required to consume the same meal items on each of the 8-hour test days.
The plasma was separated and aliquoted into 1.0 mL volume samples. These samples were stored below -40°C until high-performance […] chromatography (HPLC) analysis was performed. Plasma samples were prepared for HPLC analysis by adding 25 μl of 30% w/v aqueous perchloric acid (311413, Sigma-Aldrich, Toronto, Canada) to 250 μl of plasma in a 1.5 ml Eppendorf tube and then vortexed for 30 seconds and centrifuged at 1800 g for 10 min and 20 μl of clear supernatant was injected into the HPLC system.
Paracetamol (50 μg, A5000, Sigma-Aldrich, Toronto, Canada), paracetamol glucuronide (50 μg, A4438, Sigma-Aldrich, Toronto, Canada), or paracetamol sulfate (50 μg, A161230, Toronto Research Chemical Inc., Toronto, Canada) was added to 1 ml of Milli Q water/methanol mixture (50:50 v/v). NAPQI (50 μg, A170000, Toronto Research Chemical) was added to 1 ml acetonitrile. […] standard solutions were prepared in plasma devoid of paracetamol (blank) at the following concentrations: 25 μg/ml, 12.5 μg/ml, 6.25 μg/ml, 3.125 μg/ml, 1.56 μg/ml, 0.78 μg/ml and 0.39 μg/ml by serial dilution.
(§3) The chromatography system comprised of a Varian Solvent Delivery module 210, injector Varian Auto Sampler model 410, Varian 335 Photo Diode Array Detector for detection and MS workstation software 6.4.1 for data acquisition. Reverse phase isocratic HPLC analysis was performed with a C18 column with particle size 4 μm (4.6x150 mm). The flow rate was 0.65-0.75 ml/minute and the detection was at 240–245 nm. A 0.1 M sodium phosphate buffer containing acetonitrile at a ratio of 10:90 (v/v) was used as the mobile phase for plasma analysis. A 1 M sodium phosphate buffer containing acetonitrile at a ratio of 5:95 (v/v) was used as mobile phase for urine analysis.
(§4) Statistical comparisons of maximum concentrations (Cmax) and area under the concentration time curve (AUC) were performed on log transformed data. A paired t-test was used to compare pre- and post-treatment measurements of safety end points: biometrics, vital signs, hematology and blood clinical chemistry parameters. SAS Version 9.1 was used to perform the statistical analysis, with probability values ≤0.05 considered statistically significant.

[2] = Urine acetaminophen and metabolite profile (HPLC) after 1000 mg acetaminophen, at week 0 and after 4 weeks of SBR supplementation; type: in vivo, human; details: for Urine concentration at time points, week 4 vs week 0 (in words): 0, 2, 4, 6, 8 h after 1000 mg acetaminophen, after 4 weeks SBR; for Increase of urine levels (AUC0-8h) from week 0 to week 4: after 4 weeks SBR supplementation, 1000 mg acetaminophen
Method: as §1, §2
At baseline and week 4, urine was collected in separate containers at 2 hour intervals between 0 and 8 hours, aliquoted into 1.0 mL volumes and stored below -40°C until HPLC analysis. Urine samples were prepared for HPLC analysis by adding 750 μl of Milli Q water to 250 μl of urine and vortexed. The preparation was centrifuged at 1800 g for 10 min and 20 μl of the preparation was injected into the HPLC system.
Paracetamol (5000 μg, A5000, Sigma-Aldrich), paracetamol glucuronide (5000 μg, A4438, Sigma-Aldrich), paracetamol sulfate (5000 μg, A161230, Toronto Research Chemical) or paracetamol mercapturate (5000 μg, A172100, Toronto Research Chemical) were added to 1 ml of a Milli Q water/methanol mixture (50:50 v/v). Serial dilutions of each stock solution were prepared in urine devoid of paracetamol (blank) to give the following concentrations: 2500 μg/ml, 1250 μg/ml, 625 μg/ml, 312.5 μg/ml, 156.25 μg/ml, 78.15 μg/ml, 39.0625 μg/ml, 19.531 μg/ml, 9.766 μg/ml and 4.883 μg/ml by serial dilution.
as §3, §4

[3] = week 0 (before SBR), N=19, mean ± SD
[4] = week 4 (after 4 weeks SBR), N=19, mean ± SD
[5] = week 0 (before SBR), healthy males N=19, mean ± SD
[6] = week 4 (after 4 weeks SBR, 6 tablets daily), N=19, mean ± SD
[7] = after 4 weeks SBR vs week 0, mean ± SD

SMILES | Plasma concentration at time points, week 4 vs week 0 (in words) ([1]; 0, 2, 4, 6, 8 h after 1000 mg acetaminophen, after 4 weeks SBR) | Decrease of plasma AUC0-8h from week 0 to week 4 [1] | Plasma Tmax, difference from week 0 to week 4 [1] | AUC(0-t) [1, 3] | AUC(0-t) [1, 4] | Cmax [1, 5] | Cmax [1, 6] | Tmax [1, 3] | Tmax [1, 4] | Urine concentration at time points, week 4 vs week 0 (in words) [2] | Increase of urine levels (AUC0-8h) from week 0 to week 4 [2] | Urine AUC(0–8 hour), difference from week 0 to week 4 [2, 7] | Urine Cmax, difference from week 0 to week 4 [2, 7] | Urine Tmax, difference from week 0 to week 4 [2, 7] | Plasma AUC(0–8 hour) [1, 3] | Plasma Tmax [1, 3] | Plasma Cmax [1, 5] | Plasma AUC(0–8 hour) [1, 4] | Plasma Tmax [1, 4] | Plasma Cmax [1, 6]
CC(=O)Nc1ccc(O[C@@H]2O[C@H](C(=O)O)[C@@H](O)[C@H](O)[C@H]2O)cc1 [Acetaminophen glucuronide] | decreased significantly at 2 h post-acetaminophen dose | 9% | 0.42 ± 1.26 h | 58000 ± 14500 ng·h/mL | 52800 ± 14100 ng·h/mL | 12600 ± 4120 ng/mL | 10800 ± 3090 ng/mL | 2.13 ± 0.46 h | 2.55 ± 1.13 h | no significant differences | 1% | -38.69 ± 342.45 mg·h | 19.57 ± 124.28 mg | 0.32 ± 1.67 h |  |  |  |  |  | 
CC(=O)Nc1ccc(O)c(SCC(N)C(=O)O)c1 (centres unmarked) [Acetaminophen mercapturate] |  |  |  |  |  |  |  |  |  | higher at all time points | 37% | 22.68 ± 44.43 mg·h | 4.82 ± 9.72 mg |  |  |  |  |  |  | 
CC(=O)Nc1ccc(O)c(SC[C@H](NC(=O)CC[C@H](N)C(=O)O)C(=O)NCC(=O)O)c1 [NAPQI-GSH] |  | 9% | -0.00 ± 0.02 h |  |  |  |  |  |  |  |  |  |  |  | 0.72 ± 0.31 µM·h | 2.03 ± 0.01 h | 180 ± 90 nM | 0.66 ± 0.22 µM·h | 2.02 ± 0.01 h | 180 ± 40 nM
